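Test compounds were applied to cells in 96-well plates for 48 hours at 5 doses. The concentration for 50% growth inhibition is given as GI50. TGI marks complete inhibition of growth.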
Columns and labels:
Assay in all cases: inhibition of tumour cell growth, NCI panel, 48 h
MCF7 breast = test system: MCF7 breast
NCI-H522 lung = test system: NCI-H522 lung
IGROV1 ovarian = test system: IGROV1 ovarian
OVCAR-5 ovarian = test system: OVCAR-5 ovarian
RXF 393 renal = test system: RXF 393 renal
HOP-62 NSCLC = test system: HOP-62 NSCLC
A498 renal = test system: A498 renal
PC-3 prostate = test system: PC-3 prostate
MDA-MB-231 breast = test system: MDA-MB-231 breast
SK-MEL-5 melanoma = test system: SK-MEL-5 melanoma

Row | SMILES | GI50 (MCF7 breast) | TGI (MCF7 breast) | GI50 (NCI-H522 lung) | TGI (NCI-H522 lung) | GI50 (IGROV1 ovarian) | TGI (IGROV1 ovarian) | GI50 (OVCAR-5 ovarian) | TGI (OVCAR-5 ovarian) | GI50 (RXF 393 renal) | TGI (RXF 393 renal) | GI50 (HOP-62 NSCLC) | TGI (HOP-62 NSCLC) | GI50 (A498 renal) | TGI (A498 renal) | GI50 (PC-3 prostate) | TGI (PC-3 prostate) | GI50 (MDA-MB-231 breast) | TGI (MDA-MB-231 breast) | GI50 (SK-MEL-5 melanoma) | TGI (SK-MEL-5 melanoma)
1 | CC(O)CN(CCN(CC(C)O)CC(C)O)CC(C)O.O=[N+]([O-])O.[Cu+2] (stereo not given) | 93.1 µM | > 100 µM | > 100 µM | > 100 µM | > 100 µM | > 100 µM | > 100 µM | > 100 µM | > 100 µM | > 100 µM | > 100 µM | > 100 µM | 30.9 µM | 63.3 µM | > 100 µM | > 100 µM | > 100 µM | > 100 µM | 24.3 µM | 58.2 µM
2 | O=Cc1ccc(C(F)(F)F)cc1.[C-]#[O+].[C-]#[O+].[C-]#[O+].[Cr] | 24.7 µM | > 100 µM | 23.7 µM | > 100 µM | 18.7 µM | > 100 µM | 53.9 µM | > 100 µM | 18.6 µM | 66.6 µM | 46.6 µM | > 100 µM | 21.4 µM | > 100 µM | 31.2 µM | > 100 µM | 25 µM | > 100 µM | 12.6 µM | 28.3 µM
3 | Cc1nc2cc(O)c(O)cc2cc1Oc1ccc(NC(=O)Nc2ccc(Cl)c(Cl)c2)cc1 | 8.71 µM | > 32.5 µM | 4.43 µM | 12.5 µM | 12.3 µM | > 32.5 µM | 11.6 µM | 29.3 µM | 9.24 µM | > 32.5 µM | 8.62 µM | > 32.5 µM | > 32.5 µM | > 32.5 µM | 4.36 µM | > 32.5 µM | 2.49 µM | > 32.5 µM | 5.94 µM | 14.2 µM
4 | COc1ccc(C(=O)Nc2cccc(C3CC(=O)c4c(cc(OC)c(OC)c4OC)O3)c2)cc1 (stereo not given) | 0.466 µM | 56.4 µM | 0.411 µM | 5.15 µM | 2.41 µM | > 100 µM | 4.98 µM | > 100 µM | 1.64 µM | 5.48 µM | 1.72 µM | > 100 µM | 2 µM | 8.12 µM | 0.736 µM | 27.9 µM | 2.06 µM | > 100 µM | 1.49 µM | 4.04 µM
5 | O=C(O)/C(Cl)=C(/Cl)C(=O)Nc1cccc(Cl)c1 |  | 62.8 µM |  | 10.1 µM |  | 39 µM |  | 39.7 µM |  | 30 µM |  | > 76.3 µM |  | > 100 µM |  | 38.5 µM |  | 28.1 µM |  | 33.1 µM
6 | COc1ccc(C2CC(c3cc(OC)c(OC)c(OC)c3)=NN2)cc1 (stereo not given) | 2.78 µM | 27.1 µM | 3.43 µM | 35.9 µM | 5.98 µM | > 100 µM | 49.3 µM | > 100 µM | 9.71 µM | 92 µM | 28.7 µM | 99.2 µM | 5.99 µM | 47.6 µM | 6.03 µM | > 100 µM | 22.5 µM | > 100 µM | 4.29 µM | 17.8 µM
